Where a name gives a salt, the structure may show the parent alone. Read-outs that look alike come from different tables or passages of the source.
Tests used:
[1] = system: MLKL phosphorylation in HT29-L23 human colorectal adenocarcinoma cells; test: MLKL Phosphorylation High-Content Assay; type: cell-based; conditions: 6 h, necroptosis induced with TNFα, SMAC mimetic and Z-VAD, read-out: pMLKL (IC50)
How it was run: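 HT29-L23 cells pretreated 30 min at 37 °C with compound (6.25 to 0.106 μM final), then necroptosis induced with TNFα 35 ng/mL, SMAC mimetic 700 nM and Z-VAD 140 nM for 6 h. Fixed cells immunostained for MLKL pS358 and imaged; IC50 and Ymax from 4-parameter logistic fit.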

[2] = biological target: His-GST-TVMV-hRIPK1(1-324) (Homo sapiens (Human), UniProt Q13546); test: RIPK1 HTRF Binding Assay; conditions: HTRF binding, 1 h at rt, read-out: RIPK1 (IC50)
Sequence of His-GST-TVMV-hRIPK1(1-324) (Q13546 1-324): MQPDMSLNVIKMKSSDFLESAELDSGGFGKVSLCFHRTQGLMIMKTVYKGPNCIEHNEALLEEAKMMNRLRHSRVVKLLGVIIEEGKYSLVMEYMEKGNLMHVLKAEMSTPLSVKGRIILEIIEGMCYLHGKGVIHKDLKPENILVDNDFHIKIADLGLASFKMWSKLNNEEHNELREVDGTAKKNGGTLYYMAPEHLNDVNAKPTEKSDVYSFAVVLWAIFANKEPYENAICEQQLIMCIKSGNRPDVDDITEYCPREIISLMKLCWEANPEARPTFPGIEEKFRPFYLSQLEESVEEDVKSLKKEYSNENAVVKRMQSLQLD
How it was run: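 HTRF probe-displacement binding: 1 nM His-GST-TVMV-hRIPK1(1-324) (baculovirus construct), 90.6 nM probe, 0.2 nM anti-GST-Tb in 20 mM HEPES, 10 mM MgCl2, 0.015% Brij-35, 4 mM DTT, 0.05 mg/mL BSA. Incubated 1 h at rt; FRET 520/495 nm ratio, inhibition relative to DMSO-only wells.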

SMILES	IC50 ([1]; Homo sapiens) [nM]	IC50 [2] [nM]	IC50 [1] [nM]	IC50 ([1]; TFA) [nM]	IC50 ([2]; TFA) [nM]
CC(=O)Nc1cn2nc(-c3cnc(Cl)c(C(=O)NCc4cc(C(F)(F)F)ccc4Cl)c3)ccc2n1 [Example 274, 2-chloro-N-{[2-chloro-5-(trifluoromethyl)phenyl]methyl}-5-{2-acetamidoimidazo[1,2-b]pyridazin-6-yl}pyridine-3-carboxamide, TFA]	31	11			
CC(=O)Nc1cn2nc(-c3cnc(Cl)c(C(=O)NCc4cc(C(F)(F)F)ccc4F)c3)ccc2n1 [Example 275, 2-chloro-5-{2-acetamidoimidazo[1,2-b]pyridazin-6-yl}-N-{[2-fluoro-5-(trifluoromethyl)phenyl]methyl}pyridine-3-carboxamide]		32	52		
COc1nc(C)c(-c2ccc3nc(NC(C)=O)cn3n2)cc1C(=O)NC(C)c1cc(C(F)(F)F)ccc1F (centres unmarked) [Example 276, 5-{2-acetamidoimidazo[1,2-b]pyridazin-6-yl}-N-{1-[2-fluoro-5-(trifluoromethyl)phenyl]ethyl}-2-methoxy-6-methylpyridine-3-carboxamide]		28	39		
COc1nc(C)c(-c2ccc3nc(NC(C)=O)cn3n2)cc1C(=O)NC(C)c1cc(C(F)(F)F)ccc1F (centres unmarked) [Example 277, 5-{2-acetamidoimidazo[1,2-b]pyridazin-6-yl}-N-{1-[2-fluoro-5-(trifluoromethyl)phenyl]ethyl}-2-methoxy-6-methylpyridine-3-carboxamide]		107	263		
COc1nc(C)c(-c2ccc3nc(NC(C)=O)cn3n2)cc1C(=O)NC(C)c1cc(OC(F)(F)F)ccc1F (centres unmarked) [Example 278, 5-{2-acetamidoimidazo[1,2-b]pyridazin-6-yl}-N-{1-[2-fluoro-5-(trifluoromethoxy)phenyl]ethyl}-2-methoxy-6-methylpyridine-3-carboxamide, TFA]				64	6
COc1nc(C)c(-c2ccc3nc(NC(C)=O)cn3n2)cc1C(=O)NC(C)c1cc(OC(F)(F)F)ccc1F (centres unmarked) [Example 279, 5-{2-acetamidoimidazo[1,2-b]pyridazin-6-yl}-N-{1-[2-fluoro-5-(trifluoromethoxy)phenyl]ethyl}-2-methoxy-6-methylpyridine-3-carboxamide, TFA]				51	47
COc1nc(C)c(-c2ccc3nc(NC(C)=O)cn3n2)cc1C(=O)NCc1cc(F)cc(OC(F)(F)F)c1 [Example 280, 5-{2-acetamidoimidazo[1,2-b]pyridazin-6-yl}-N-{[3-fluoro-5-(trifluoromethoxy)phenyl]methyl}-2-methoxy-6-methylpyridine-3-carboxamide]	36	5			
COc1nc(C)c(-c2ccc3nc(NC(C)=O)cn3n2)cc1C(=O)N(C)Cc1cccc(OC(F)(F)F)c1 [Example 281, 5-{2-acetamidoimidazo[1,2-b]pyridazin-6-yl}-2-methoxy-N,6-dimethyl-N-{[3-(trifluoromethoxy)phenyl]methyl}pyridine-3-carboxamide]	4	6			
COc1nc(C)c(-c2ccc3nc(NC(C)=O)cn3n2)cc1C(=O)N(C)Cc1ccccc1OC(F)(F)F [Example 283, 5-{2-acetamidoimidazo[1,2-b]pyridazin-6-yl}-2-methoxy-N,6-dimethyl-N-{[2-(trifluoromethoxy)phenyl]methyl}pyridine-3-carboxamide]	67	16			
COc1nc(C)c(-c2ccc3nc(NC(C)=O)cn3n2)cc1C(=O)NCc1cc(F)c(F)cc1OCC1CC1 [Example 284, N-{[2-(cyclopropylmethoxy)-4,5-difluorophenyl]methyl}-5-{2-acetamidoimidazo[1,2-b]pyridazin-6-yl}-2-methoxy-6-methylpyridine-3-carboxamide]	5	5			
COc1nc(C)c(-c2ccc3nc(NC(C)=O)cn3n2)cc1C(=O)NCc1c(F)ccc(F)c1OC [Example 285, N-[(3,6-difluoro-2-methoxyphenyl)methyl]-5-{2-acetamidoimidazo[1,2-b]pyridazin-6-yl}-2-methoxy-6-methylpyridine-3-carboxamide]	23	17			
COc1nc(C)c(-c2ccc3nc(NC(C)=O)cn3n2)cc1C(=O)NCc1ccc(F)c(F)c1OCC1CC1 [Example 286, N-{[2-(cyclopropylmethoxy)-3,4-difluorophenyl]methyl}-5-{2-acelamidoimidazo[1,2-b]pyridazin-6-yl}-2-methoxy-6-methylpyridine-3-carboxamide]		9	19		
COc1nc(C)c(-c2ccc3nc(NC(C)=O)cn3n2)cc1C(=O)NCc1cc(F)cc(F)c1OCC1CC1 [Example 287, N-{[2-(cyclopropylmethoxy)-3,5-difluorophenyl](deutero)methyl}-5-{2-acetamidoimidazo[1,2-b]pyridazin-6-yl}-2-methoxy-6-methylpyridine-3-carboxamide]		4	2		
COc1nc(C)c(-c2ccc3nc(NC(C)=O)cn3n2)cc1C(=O)NCc1cccc(F)c1OCC1CCC1 [Example 288, N-{[2-(cyclobutylmethoxy)-3-fluorophenyl]methyl}-5-{2-acetamidoimidazo[1,2-b]pyridazin-6-yl}-2-methoxy-6-methylpyridine-3-carboxamide]	1	6			
COc1nc(C)c(-c2ccc3nc(NC(C)=O)cn3n2)cc1C(=O)NC(C)c1cccc(OC(F)(F)F)c1 (centres unmarked) [Example 289, 5-{2-acetamidoimidazo[1,2-b]pyridazin-6-yl}-2-methoxy-6-methyl-N-{1-[3-(trifluoromethoxy)phenyl]ethyl}pyridine-3-carboxamide]		16	16		
COc1nc(C)c(-c2ccc3nc(NC(C)=O)cn3n2)cc1C(=O)NC(C)c1ccccc1OC(F)(F)F (centres unmarked) [Example 290, 5-{2-acetamidoimidazo[1,2-b]pyridazin-6-yl}-2-methoxy-6-methyl-N-{1-[2-(trifluoromethoxy)phenyl]ethyl}pyridine-3-carboxamide]		7	3		
COc1nc(C)c(-c2ccc3nc(NC(C)=O)cn3n2)cc1C(=O)NC(C)c1ccccc1OC(F)(F)F (centres unmarked) [Example 291, 5-{2-acetamidoimidazo[1,2-b]pyridazin-6-yl}-2-methoxy-6-methyl-N-{1-[2-(trifluoromethoxy)phenyl]ethyl}pyridine-3-carboxamide]		> 5000	> 6250		
COc1nc(C)c(-c2ccc3nc(NC(C)=O)cn3n2)cc1C(=O)NC(C)c1cccc(OC(F)(F)F)c1 (centres unmarked) [Example 292, 5-{2-acetamidoimidazo[1,2-b]pyridazin-6-yl}-2-methoxy-6-methyl-N-{1-[3-(trifluoromethoxy)phenyl]ethyl}pyridine-3-carboxamide]		24	37		
COc1nc(C)c(-c2ccc3nc(NC(C)=O)cn3n2)cc1C(=O)NCc1cc(F)cc(C(F)(F)F)c1 [Example 293, 5-{2-acetamidoimidazo[1,2-b]pyridazin-6-yl}-N-{[3-fluoro-5-(trifluoromethyl)phenyl]methyl}-2-methoxy-6-methylpyridine-3-carboxamide]	135	33			
COc1nc(C)c(-c2ccc3nc(NC(C)=O)cn3n2)cc1C(=O)NCc1cc(F)cc(F)c1OCC1CCC1 [Example 294, N-{[2-(cyclobutylmethoxy)-3,5-difluorophenyl]methyl}-5-{2-acetamidoimidazo[1,2-b]pyridazin-6-yl}-2-methoxy-6-methylpyridine-3-carboxamide]	3	10			
COc1nc(C)c(-c2ccc3nc(NC(C)=O)cn3n2)cc1C(=O)NCc1cc(C(F)(F)F)ccc1F [Example 296, 5-{2-acetamidoimidazo[1,2-b]pyridazin-6-yl}-N-{[2-fluoro-5-(trifluoromethyl)phenyl]methyl}-2-methoxy-6-methylpyridine-3-carboxamide]	20	10			
COc1nc(C)c(-c2ccc3nc(NC(C)=O)cn3n2)cc1C(=O)NCc1cc(OCC2CC2)ccc1F [Example 297, N-{[5-(cyclopropylmethoxy)-2-fluorophenyl]methyl}-5-{2-acetamidoimidazo[1,2-b]pyridazin-6-yl}-2-methoxy-6-methylpyridine-3-carboxamide]	36	11			
COc1nc(C)c(-c2ccc3nc(NC(C)=O)cn3n2)cc1C(=O)NCc1c(F)cc(F)cc1OCC1CC1 [Example 298, N-{[2-(cyclopropylmethoxy)-4,6-difluorophenyl]methyl}-5-{2-acetamidoimidazo[1,2-b]pyridazin-6-yl}-2-methoxy-6-methylpyridine-3-carboxamide]	79	43			
COc1nc(C)c(-c2ccc3nc(NC(C)=O)cn3n2)cc1C(=O)NCc1cccc(F)c1OCC1CC1 [Example 299, N-{[2-(cyclopropylmethoxy)-3-fluorophenyl]methyl}-5-{2-acetamidoimidazo[1,2-b]pyridazin-6-yl}-2-methoxy-6-methylpyridine-3-carboxamide]	1	4			
COc1nc(C)c(-c2ccc3nc(NC(C)=O)cn3n2)cc1C(=O)NCc1cc(F)cc(F)c1OCC1CC1 [Example 300, N-{[2-(cyclopropylmethoxy)-3,5-difluorophenyl]methyl}-5-{2-acetamidoimidazo[1,2-b]pyridazin-6-yl}-2-methoxy-6-methylpyridine-3-carboxamide]	76	4			
